The results in this text go back to ChEMBL document CHEMBL5728714, “Aryl heterocyclic piperidinone formyl peptide 2 receptor and formyl peptide 1 receptor agonists” (2021).

The assay addresses T1, N-formyl peptide receptor 2 (Homo sapiens, UniProt P25090).
T1 sequence (P25090 whole entry): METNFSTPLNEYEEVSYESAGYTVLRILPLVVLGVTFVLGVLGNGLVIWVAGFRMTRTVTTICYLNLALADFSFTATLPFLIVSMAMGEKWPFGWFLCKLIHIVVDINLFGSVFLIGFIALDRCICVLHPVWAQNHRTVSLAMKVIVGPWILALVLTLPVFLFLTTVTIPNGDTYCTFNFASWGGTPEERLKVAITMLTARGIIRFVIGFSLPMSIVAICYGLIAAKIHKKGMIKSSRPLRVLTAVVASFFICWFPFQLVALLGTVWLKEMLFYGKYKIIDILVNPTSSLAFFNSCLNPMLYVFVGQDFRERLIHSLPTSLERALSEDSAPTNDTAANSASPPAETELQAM
Briefly: FPR2 and FPR1 Cyclic Adenosine Monophosphate (cAMP) Assays: A mixture of forskolin (5 μM final for FPR2 or 10 μM final for FPR1) and IBMX (200 μM final) were added to 384-well Proxiplates (Perkin-Elmer) pre-dotted with test compounds in DMSO (1% final) at final concentrations in the range of 1.7 nM to 100 μM. Chinese Hamster Ovary cells (CHO) overexpressing human FPR1 or human FPR2 receptors were cultured in F-12 (Ham's) medium supplemented with 10% qualified FBS, 250 μg/ml zeocin and 300 μg/ml hygromycin (Life Technologies). Reactions were initiated by adding 2,000 human FPR2 cells per well or 4,000 human FPR1 cells per well in Dulbecco's PBS (with calcium and magnesium) (Life Technologies) supplemented with 0.1% BSA (Perkin-Elmer). The reaction mixtures were incubated for 30 min at room temperature. The level of intracellular cAMP was determined using the HTRF HiRange cAMP assay reagent kit (Cisbio) according to manufacturer's instruction. Solutions of cryptate conjugated anti-cAMP and d2 flurorophore-labelled cAMP were made in a supplied lysis buffer separately. Upon completion of the reaction, the cells were lysed with equal volume of the d2-cAMP solution and anti-cAMP solution. After a 1-h room temperature incubation, time-resolved fluorescence intensity was measured using the Envision (Perkin-Elmer) at 400 nm excitation and dual emission at 590 nm and 665 nm. […]. In kind it is cell-based.

Some results are limits rather than exact numbers.

The EC50 is the concentration at which the effect is half-maximal. Consider `O=C(Nc1cnc(Cl)cn1)N[C@@H]1CCCN(c2ccc(C3(CN4CCOCC4)CC3)cc2)C1=O`, for which the EC50 was less than 0.01 µM.

As for `O=C(Nc1ccc(C(F)(F)F)cc1)N[C@@H]1CCCN(c2ccc(C3CCOCC3)cc2)C1=O`, the EC50 is less than 0.01 µM.
